Reference: patent US6603012B2, “RAR selective retinoid agonists” (Hoffmann-La Roche Inc., priority 2000, dated 2003)

System: elastase-induced emphysema
Experiment: Repair of alveoli in the rat model of elastase-induced emphysema (morphometric analysis)
Format: in vivo, male Sprague Dawley rats
Conditions: 0.003 mg/kg p.o., once daily starting 21 days post elastase injury
Description: RAR selective agonists were evaluated for its effects on alveolar repair in the rat model of elastase-induced emphysema in rats (D. Massaro et al. Nature Medicine (1997, 3, 675). Animals were divided into treatment groups of approximately eight. Lung inflammation and alveolar damage was induced in male Sprague Dawley rats by a single instillation of pancreatic elastase(porcine derived, Calbiochem) 2 U/gram body mass. Three weeks post injury, all-trans retinoic acid or RAR agonist was dissolved in dimethylsulfoxide (20 mg/ml) and stored at −20 C. Fresh working stocks were prepared daily by dilution in PBS to a final concentration of 2 mg/ml. Animals were dosed once daily with the retinoid by intraperitoneal injection or orally, starting 21 days post injury. Control groups were challenged with elastase and 21 days later treated with Vehicle (DMSO/PBS) for 14 days. Animals were sacrificed 24 hours after the last dose by exsanguination under deep anesthesia. The lungs were inflated with 10% neutral buffered formalin by intratracheal instillation at a constant rate (1 ml/gram body mass/min). The lung was excised and immersed in fixative for 24 hours prior to processing. Standard methods were used to prepare 5 um paraffin sections. Sections were stained with Hematoxylin and Eosin (H%E). Computerized Morphometric analysis was performed to determine the average alveolar size and alveolar number (Table 1).

SMILES	% repair area
CCCCCC(/C=C/c1ccc(C(=O)O)cc1)c1ccc2c(c1)C(C)(C)CCC2(C)C (racemic) [(RS)-(E)-4-[3-(5,5,8,8-tetramethyl-5,6,7,8-tetrahydronaphthalen-2-yl)-oct-1-enyl]-benzoic Acid]	53%

Same assay, conditions: 0.01 mg/kg p.o., once daily starting 21 days post elastase injury

SMILES	% repair area
CCCCCC(/C=C/c1ccc(C(=O)O)cc1)c1ccc2c(c1)C(C)(C)CCC2(C)C (racemic) [(RS)-(E)-4-[3-(5,5,8,8-tetramethyl-5,6,7,8-tetrahydronaphthalen-2-yl)-oct-1-enyl]-benzoic Acid]	49%

Same assay, conditions: 0.03 mg/kg p.o., once daily starting 21 days post elastase injury

SMILES	% repair area
CCCCCC(/C=C/c1ccc(C(=O)O)cc1)c1ccc2c(c1)C(C)(C)CCC2(C)C (racemic) [(RS)-(E)-4-[3-(5,5,8,8-tetramethyl-5,6,7,8-tetrahydronaphthalen-2-yl)-oct-1-enyl]-benzoic Acid]	32%

System: not given
Experiment: not given
Conditions: not given

melting point	SMILES
163 to 164 °C	CC1(C)CCC(C)(C)c2cc(C(Cc3ccccc3)C(=O)Oc3ccc(C(=O)O)cc3)ccc21 (racemic) [Example 3.2, (RS)-4-[3-Phenyl-2-(5,5,8,8-tetramethyl-5,6,7,8-tetrahydronaphthalen-2-yl)-propanoyloxy]-benzoic acid]
158 to 159 °C	CC1(C)CCC(C)(C)c2cc(C(Cc3ccc(C(F)(F)F)cc3)C(=O)Oc3ccc(C(=O)O)cc3)ccc21 (racemic) [Example 3.4, (RS)-4-[2-(5,5,8,8-Tetramethyl-5,6,7,8-tetrahydronaphthalen-2-yl)-3-(4-trifluoromethylphenyl)-propanoyloxy]-benzoic acid]
133 to 134 °C	CCOCCC(C(=O)Oc1ccc(C(=O)O)cc1)c1ccc2c(c1)C(C)(C)CCC2(C)C (racemic) [Example 3.5, (RS)-4-[4-Ethoxy-2-(5,5,8,8-tetramethyl-5,6,7,8-tetrahydronaphthalen-2-yl)-butanoyloxy]-benzoic acid]
203 to 204 °C	CC(/C=C/c1ccc(C(=O)O)cc1)c1ccc2c(c1)C(C)(C)CCC2(C)C (racemic) [Example 10.2, (RS)-(E)-4-[3-(5,5,8,8-Tetramethyl-5,6,7,8-tetrahydronaphthalen-2-yl)-but-1-enyl]-benzoic acid]
116 to 118 °C	CCCC(/C=C/c1ccc(C(=O)O)cc1)c1ccc2c(c1)C(C)(C)CCC2(C)C (racemic) [Example 10.3, (RS)-(E)-4-[3-(5,5,8,8-Tetramethyl-5,6,7,8-tetrahydronaphthalen-2-yl)-hex-1-enyl]-benzoic acid]
145 to 147 °C	CC=CCC(/C=C/c1ccc(C(=O)O)cc1)c1ccc2c(c1)C(C)(C)CCC2(C)C (racemic) [Example 10.4, (RS)-(E)-4-[3-(5,5,8,8-Tetramethyl-5,6,7,8-tetrahydronaphthalen-2-yl)-hepta-1,5-dienyl]-benzoic acid]
107 to 108 °C	CCCCC(/C=C/c1ccc(C(=O)O)cc1)c1ccc2c(c1)C(C)(C)CCC2(C)C (racemic) [Example 10.5, (RS)-(E)-4-[3-(5,5,8,8-Tetramethyl-5,6,7,8-tetrahydronaphthalen-2-yl)-hept-1-enyl]-benzoic acid]
61 to 78 °C	CC(C)CC(/C=C/c1ccc(C(=O)O)cc1)c1ccc2c(c1)C(C)(C)CCC2(C)C (racemic) [Example 10.7, (RS)-(E)-4-[5-Methyl-3-(5,5,8,8-tetramethyl-5,6,7,8-tetrahydronaphthalen-2-yl)-hex-1-enyl]-benzoic acid]
183 to 184 °C	CC1(C)CCC(C)(C)c2cc(C(/C=C/c3ccc(C(=O)O)cc3)Cc3ccccc3)ccc21 (racemic) [Example 10.8, (RS)-(E)-4-[4-Phenyl-3-(5,5,8,8-tetramethyl-5,6,7,8-tetrahydronaphthalen-2-yl)-but-1-enyl]-benzoic acid]
168 to 169 °C	CC1(C)CCC(C)(C)c2cc(C(/C=C/c3ccc(C(=O)O)cc3)Cc3ccc(Cl)cc3)ccc21 (racemic) [Example 10.9, (RS)-(E)-4-[4-(4-Chlorophenyl)-3-(5,5,8,8-tetramethyl-5,6,7,8-tetrahydronaphthalen-2-yl)-but-1-enyl]-benzoic acid]
78 to 79 °C	CC1(C)CCC(C)(C)c2cc(C(/C=C/c3ccc(C(=O)O)cc3)CCc3ccccc3)ccc21 (racemic) [Example 10.11, (RS)-(E)-4-[5-Phenyl-3-(5,5,8,8-tetramethyl-5,6,7,8-tetrahydronaphthalen-2-yl)-pent-1-enyl]-benzoic acid]
128 to 129 °C	CCCCCC(/C=C/c1ccc(C(=O)O)s1)c1ccc2c(c1)C(C)(C)CCC2(C)C (racemic) [Example 10.12, (RS)-(E)-5-[3-(5,5,8,8-Tetramethyl-5,6,7,8-tetrahydronaphthalen-2-yl)-oct-1-enyl]-thiophene-2-carboxylic acid]
168 to 169 °C	CC1(C)CCC(C)(C)c2cc(C(/C=C/c3ccc(C(=O)O)cc3)Cc3ccc(F)cc3)ccc21 (racemic) [Example 10.13, (RS)-(E)-4-[4-(4-Fluorophenyl)-3-(5,5,8,8-tetramethyl-5,6,7,8-tetrahydronaphthalen-2-yl)-but-1-enyl]-benzoic acid]
170 to 175 °C	COc1ccc(CC(/C=C/c2ccc(C(=O)O)cc2)c2ccc3c(c2)C(C)(C)CCC3(C)C)cc1 (racemic) [Example 10.15, (RS)-(E)-4-[4-(4-Methoxyphenyl)-3-(5,5,8,8-tetramethyl-5,6,7,8-tetrahydronaphthalen-2-yl)-but-1-enyl]-benzoic acid]
112 to 113 °C	CCCCCC(/C=C/c1ccc(C(=O)O)cc1F)c1ccc2c(c1)C(C)(C)CCC2(C)C (racemic) [Example 10.16, (RS)-(E)-3-Fluoro-4-[3-(5,5,8,8-tetramethyl-5,6,7,8-tetrahydronaphthalen-2-yl)-oct-1-enyl]-benzoic acid]
115 to 116 °C	CCCCCC(C#Cc1ccc(C(=O)O)cc1)c1ccc2c(c1)C(C)(C)CCC2(C)C (racemic) [Example 12, (RS)-4-[3-(5,5,8,8-tetramethyl-5,6,7,8-tetrahydronaphthalen-2-yl)-oct-1-ynyl]-benzoic Acid]
183 to 184 °C	CC1(C)CCSc2ccc(C(/C=C/c3ccc(C(=O)O)cc3)Cc3ccccc3)cc21 (racemic) [Example 40.2, (RS)-(E)-4-[3-(4,4-Dimethyl-thiochroman-6-yl)-4-phenylbut-1-enyl]-benzoic acid]
63 to 76 °C	CC1(C)CCSc2ccc(C(/C=C/c3ccc(C(=O)O)cc3)CCc3ccccc3)cc21 (racemic) [Example 40.3, (RS)-(E)-4-[3-(4,4-Dimethyl-thiochroman-6-yl)-5-phenylpent-1-enyl]-benzoic acid]
195 to 196 °C	CC1(C)CCC(C)(C)c2cc(CCOc3ccc(C(=O)O)cc3)ccc21 [Example 11.2, 4-[2-(5,5,8,8-Tetramethyl-5,6,7,8-tetrahydronaphthalen-2-yl)-ethyloxy]-benzoic acid]

SMILES	melting point
COC(C(=O)Oc1ccc(C(=O)O)cc1)c1ccc2c(c1)C(C)(C)CCC2(C)C (racemic) [Example 15.2. d), (RS)-4-[methoxy-(5,5,8,8-tetramethyl-5,6,7,8-tetrahydro-naphthalen-2-yl)-acetoxy]-benzoic acid]	190 to 195 °C
CCOC(C(=O)Oc1ccc(C(=O)O)cc1)c1ccc2c(c1)C(C)(C)CCC2(C)C (racemic) [Example 15.3. d), (RS)-4-[ethoxy-(5,5,8,8-tetramethyl-5,6,7,8-tetrahydro-naphthalen-2-yl)-acetoxy]-benzoic acid]	123 to 125 °C
CCCOC(C(=O)Oc1ccc(C(=O)O)cc1)c1ccc2c(c1)C(C)(C)CCC2(C)C (racemic) [Example 15.4. d), (RS)-4-[propoxy-(5,5,8,8-tetramethyl-5,6,7,8-tetrahydro-naphthalen-2-yl)-acetoxy]-benzoic acid]	155 to 156 °C
CCCCOC(C(=O)Oc1ccc(C(=O)O)cc1)c1ccc2c(c1)C(C)(C)CCC2(C)C (single isomer, unassigned) [Example 16 (from diastereomer I), (R)- or (S)-4-[butoxy-(5,5,8,8-tetramethyl-5,6,7,8-tetrahydro-naphthalen-2-yl)-acetoxy]-benzoic acid]	112 to 113 °C
CCCCOC(C(=O)Oc1ccc(C(=O)O)cc1)c1ccc2c(c1)C(C)(C)CCC2(C)C (single isomer, unassigned) [Example 16 (from diastereomer II), (S)- or (R)-4-[butoxy-(5,5,8,8-tetramethyl-5,6,7,8-tetrahydro-naphthalen-2-yl)-acetoxy]-benzoic acid]	113 to 114 °C

System: animal models of emphysema
Experiment: not given
Conditions: cited from earlier work

SMILES	formation of new alveoli and elastic recoil
CC1=C(/C=C/C(C)=C/C=C/C(C)=C/C(=O)O)C(C)(C)CCC1 [all-trans retinoic acid]	can induce formation of new alveoli and return elastic recoil to near normal

System: alveoli in rats
Experiment: not given
Conditions: postnatal administration; cited from earlier work

SMILES	number of alveoli
CC1=C(/C=C/C(C)=C/C=C/C(C)=C/C(=O)O)C(C)(C)CCC1 [all-trans retinoic acid]	increases the number of alveoli in rats
